Assays:
A431 cells [1] = test: Uptake of Cy3-labeled ASO by flow cytometry, A431 cells; format: cell-based
Protocol: Uptake of compound no. 446654 by A431 cells was measured by flow cytometry. A431 cells were treated with a growth factor for 4 hours prior to incubation with compound no. 446654 for 2 hours. Results are presented in the tables below as relative fluorescence units (RFU) and represent an average of three independent experiments.
Uptake of compound no. 446654 was measured in siRNA treated A431 cells via flow cytometry, as described in example 8. The results are presented in the tables below and indicate that uptake of compound no. 446654 was unaffected by EGFR expression level.

A431 cells [2] = test: Localization in early and late endosomes after siRNA treatment; format: cell-based; conditions: 20 cells; for % ASO EE/Total ASO: early endosomes (EEA1); for % ASO LE/Total ASO: late endosomes (LAMP1)
Protocol: EGFR levels in A431 cells were reduced using two siRNAs targeting EGFR, Assay ID 42833 and Assay ID 644 (ThermoFisher). A siRNA targeting luciferase was used for a control. Treatment of cells with the EGFR siRNA reduced EGFR protein levels more than 80%. Following siRNA treatment, cells were treated with additional compounds to test for antisense compound localization, activity, or uptake, as described below.
Following siRNA treatment, cells were treated with compound no. 446654 for two hours. EEA1 was labeled as in Example 2 and LAMP1 was labeled with an antibody. EEA1 is a marker for early endosomes and LAMP1 is a marker for late endosomes. Co-localization of compound no. 446654 with EEA1 and with LAMP1 was observed. The number of 446654 loci co-localized with EEA1 or LAMP1 was counted in 20 cells, and compared to the total number of 446654 loci. The difference observed with control siRNA treatment vs EGFR siRNA treatment shown in Table 22 is significant, as determined by the student T-test (p<0.05), whereas the difference shown in Table 23 was not determined to be significant by the student T-test.

Cy3-^mCesTesGes^mCesTesAdsGds^mCdsTds^mCdsTdsGdsGdsAdsTesTesTesGesAe (antisense CTGCTAGCCTCTGGATTTGA; listed as DNA, chemistry not fully specified) [compound 446654, Cy3-labeled PS-ASO]
RFU (A431 cells [1]; 0.015 μM, Control Luciferase siRNA): 22.3 RFU | RFU (A431 cells [1]; 0.015 μM, EGFR siRNA-1): 25.3 RFU | RFU (A431 cells [1]; 0.015 μM, EGFR siRNA-2): 24.7 RFU | RFU (A431 cells [1]; 0.03 μM, Control Luciferase siRNA): 31.3 RFU | RFU (A431 cells [1]; 0.03 μM, EGFR siRNA-1): 33.0 RFU | RFU (A431 cells [1]; 0.03 μM, EGFR siRNA-2): 29.0 RFU | RFU (A431 cells [1]; 0.06 μM, Control Luciferase siRNA): 136 RFU | RFU (A431 cells [1]; 0.06 μM, EGFR siRNA-1): 133 RFU | RFU (A431 cells [1]; 0.06 μM, EGFR siRNA-2): 101 RFU | RFU (A431 cells [1]; 0.12 μM, Control): 1475 RFU | RFU (A431 cells [1]; 0.12 μM, Control Luciferase siRNA): 359 RFU | RFU (A431 cells [1]; 0.12 μM, EGF): 1772 RFU | RFU (A431 cells [1]; 0.12 μM, EGFR siRNA-1): 444 RFU | RFU (A431 cells [1]; 0.12 μM, EGFR siRNA-2): 292 RFU | RFU (A431 cells [1]; 0.12 μM, FGF): 1420 RFU | RFU (A431 cells [1]; 0.12 μM, HGF): 1204 RFU | RFU (A431 cells [1]; 0.12 μM, IGF): 1659 RFU | RFU (A431 cells [1]; 0.12 μM, PGF): 1321 RFU | RFU (A431 cells [1]; 0.12 μM, TGF): 1500 RFU | RFU (A431 cells [1]; 0.12 μM, VEGF): 1147 RFU | RFU (A431 cells [1]; 0.25 μM, Control): 1606 RFU | RFU (A431 cells [1]; 0.25 μM, Control Luciferase siRNA): 806 RFU | RFU (A431 cells [1]; 0.25 μM, EGF): 1917 RFU | RFU (A431 cells [1]; 0.25 μM, EGFR siRNA-1): 879 RFU | RFU (A431 cells [1]; 0.25 μM, EGFR siRNA-2): 852 RFU | RFU (A431 cells [1]; 0.25 μM, FGF): 1682 RFU | RFU (A431 cells [1]; 0.25 μM, HGF): 1481 RFU | RFU (A431 cells [1]; 0.25 μM, IGF): 1435 RFU | RFU (A431 cells [1]; 0.25 μM, PGF): 1275 RFU | RFU (A431 cells [1]; 0.25 μM, TGF): 1871 RFU | RFU (A431 cells [1]; 0.25 μM, VEGF): 1423 RFU | RFU (A431 cells [1]; 0.5 μM, Control): 2223 RFU | RFU (A431 cells [1]; 0.5 μM, Control Luciferase siRNA): 1392 RFU | RFU (A431 cells [1]; 0.5 μM, EGF): 2349 RFU | RFU (A431 cells [1]; 0.5 μM, EGFR siRNA-1): 1437 RFU | RFU (A431 cells [1]; 0.5 μM, EGFR siRNA-2): 1490 RFU | RFU (A431 cells [1]; 0.5 μM, FGF): 1827 RFU | RFU (A431 cells [1]; 0.5 μM, HGF): 2095 RFU | RFU (A431 cells [1]; 0.5 μM, IGF): 1917 RFU | RFU (A431 cells [1]; 0.5 μM, PGF): 2112 RFU | RFU (A431 cells [1]; 0.5 μM, TGF): 2081 RFU | RFU (A431 cells [1]; 0.5 μM, VEGF): 1973 RFU | RFU (A431 cells [1]; 1.0 μM, Control): 1565 RFU | RFU (A431 cells [1]; 1.0 μM, Control Luciferase siRNA): 2374 RFU | RFU (A431 cells [1]; 1.0 μM, EGF): 2532 RFU | RFU (A431 cells [1]; 1.0 μM, EGFR siRNA-1): 2614 RFU | RFU (A431 cells [1]; 1.0 μM, EGFR siRNA-2): 2906 RFU | RFU (A431 cells [1]; 1.0 μM, FGF): 2414 RFU | RFU (A431 cells [1]; 1.0 μM, HGF): 2533 RFU | RFU (A431 cells [1]; 1.0 μM, IGF): 2237 RFU | RFU (A431 cells [1]; 1.0 μM, PGF): 2487 RFU | RFU (A431 cells [1]; 1.0 μM, TGF): 2826 RFU | RFU (A431 cells [1]; 1.0 μM, VEGF): 2655 RFU | RFU (A431 cells [1]; Time 0.25 hours, Control Luciferase siRNA): 1082 RFU | RFU (A431 cells [1]; Time 0.25 hours, EGFR siRNA-1): 814 RFU | RFU (A431 cells [1]; Time 0.25 hours, EGFR siRNA-2): 950 RFU | RFU (A431 cells [1]; Time 0.5 hours, Control Luciferase siRNA): 1988 RFU | RFU (A431 cells [1]; Time 0.5 hours, EGFR siRNA-1): 1562 RFU | RFU (A431 cells [1]; Time 0.5 hours, EGFR siRNA-2): 1637 RFU | RFU (A431 cells [1]; Time 1 hours, Control Luciferase siRNA): 2315 RFU | RFU (A431 cells [1]; Time 1 hours, EGFR siRNA-1): 2308 RFU | RFU (A431 cells [1]; Time 1 hours, EGFR siRNA-2): 2698 RFU | RFU (A431 cells [1]; Time 2 hours, Control Luciferase siRNA): 2276 RFU | RFU (A431 cells [1]; Time 2 hours, EGFR siRNA-1): 2280 RFU | RFU (A431 cells [1]; Time 2 hours, EGFR siRNA-2): 2349 RFU | RFU (A431 cells [1]; Time 4 hours, Control Luciferase siRNA): 3103 RFU | RFU (A431 cells [1]; Time 4 hours, EGFR siRNA-1): 2854 RFU | RFU (A431 cells [1]; Time 4 hours, EGFR siRNA-2): 3069 RFU | RFU (A431 cells [1]; Time 6 hours, Control Luciferase siRNA): 4300 RFU | RFU (A431 cells [1]; Time 6 hours, EGFR siRNA-1): 3747 RFU | RFU (A431 cells [1]; Time 6 hours, EGFR siRNA-2): 3821 RFU | RFU (A431 cells [1]; Time 8 hours, Control Luciferase siRNA): 4988 RFU | RFU (A431 cells [1]; Time 8 hours, EGFR siRNA-1): 5048 RFU | RFU (A431 cells [1]; Time 8 hours, EGFR siRNA-2): 5145 RFU | total uptake, effect of growth factor treatment (A431 cells [1]; growth factor 4 hours, then compound 2 hours): not affected in a significant, dose dependent manner | uptake, effect of EGFR expression level (A431 cells [1]; siRNA treated A431 cells): unaffected | % ASO EE/Total ASO (A431 cells [2]; Control luciferase siRNA): 15% | % ASO EE/Total ASO (A431 cells [2]; EGFR siRNA-1): 26% | % ASO LE/Total ASO (A431 cells [2]; Control luciferase siRNA): 79% | % ASO LE/Total ASO (A431 cells [2]; EGFR siRNA-1): 66%
